In one assay the target is T1, jack-bean urease (Canavalia ensiformis, UniProt P07374).
T1 construct: purchased Sigma Aldrich
Put plainly: biochemical. The method, then: The assay mixture, containing 50 μL (2 mg/mL) of jack-bean urease (purchased from Sigma Aldrich) and 100 μL of different concentration of test compounds, which were previously dissolved in ethanol 20%, was added to 850 μL of 25 mM urea and pre-incubated for 0.5 h in a water bath at 37 °C. The urease reaction was stopped after 30 min incubation by following procedure.
Urease activity was determined by measuring ammonia production using the indophenol method, as described by Weatherburn. After pre-incubation, 500 μL of phenol reagent (1% w/v phenol and 0.005% w/v sodium nitroprusside) and 500 μL of alkali reagent (1% w/v NaOH and 0.075% active chloride NaOCl) were added to 100 μL of incubation mixture and kept at 37 °C for 30 min. The absorbance was measured at 625 nm. All experiments were performed in triplicate in a final volume of 1 mL, and thiourea was used as a standard urease inhibitor.
Percentage inhibitions were calculated using the formula:(100 − (OD sample/OD control) × 100)
The IC50 values were then calculated using GraphPad Prism 5 software.

Assay [1] addresses α-glucosidase from Saccharomyces cerevisiae. As to the kind of experiment: α-Glucosidase inhibition assay (chromogenic method, p-nitrophenyl-α-D-glucopyranoside). The assay is classed as biochemical. As to conditions: pH 6.9, 37 °C; read-out: α Glucosidase Inhibition (IC50 ± S.E.M). The method, then:
α-glucosidase from Saccharomyces cerevisiae was purchased from Sigma Aldrich. […] The test samples were prepared (200 µg/mL) in DMSO and 10 μL of each sample was added to 20 μL of α-glucosidase solution (prepared in 120 μL of 0.1 M phosphate buffer, pH 6.9) in a 96-well plate format and incubated for 15 min at 37 °C. After incubation, 20 μL p-nitrophenyl-α-D-glucopyranoside (5 mM) solution was added to this mixture and incubated for a further 15 min. Finally, 80 µL of Na2CO3 solution (0.2 M) was added to this solution to stop the reaction and the absorbance was measured at 410 nm with SpectraMax microplate reader, M2. […] The α-glucosidase inhibition (%) was calculated with the help of the following formula:Inhibition (%) = (Absorbance of Control − Absorbance of Sample)/(Absorbance of Control) × 100
The IC50 values of the active samples were calculated using regression equation by plotting % inhibition at various concentrations.

T1 sequence (P07374 whole entry, looked up): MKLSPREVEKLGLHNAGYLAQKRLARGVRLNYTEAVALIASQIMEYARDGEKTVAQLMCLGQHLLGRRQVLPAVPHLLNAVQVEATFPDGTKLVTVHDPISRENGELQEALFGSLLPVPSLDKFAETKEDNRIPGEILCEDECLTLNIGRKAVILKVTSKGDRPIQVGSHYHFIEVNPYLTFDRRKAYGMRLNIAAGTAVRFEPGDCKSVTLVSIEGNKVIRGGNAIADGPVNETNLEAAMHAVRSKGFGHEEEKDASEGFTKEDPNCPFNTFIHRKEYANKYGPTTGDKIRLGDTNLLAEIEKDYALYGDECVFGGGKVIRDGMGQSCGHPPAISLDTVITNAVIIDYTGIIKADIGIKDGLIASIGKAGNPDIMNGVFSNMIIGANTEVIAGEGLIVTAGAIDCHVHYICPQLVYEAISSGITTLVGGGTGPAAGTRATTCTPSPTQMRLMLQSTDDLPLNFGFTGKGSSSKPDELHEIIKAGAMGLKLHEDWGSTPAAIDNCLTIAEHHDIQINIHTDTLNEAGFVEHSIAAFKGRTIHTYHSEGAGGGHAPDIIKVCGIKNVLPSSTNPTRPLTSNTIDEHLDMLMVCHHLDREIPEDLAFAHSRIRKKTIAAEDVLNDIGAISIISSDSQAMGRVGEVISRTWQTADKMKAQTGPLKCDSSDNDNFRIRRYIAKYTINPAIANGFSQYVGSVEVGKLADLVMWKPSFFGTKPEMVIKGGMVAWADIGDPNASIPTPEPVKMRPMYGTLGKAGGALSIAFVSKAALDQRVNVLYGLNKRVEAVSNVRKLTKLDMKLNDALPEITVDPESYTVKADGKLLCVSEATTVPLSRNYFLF

A word on the IC50: it is the concentration needed to halve the response being measured. With `CO[C@H]1C(=O)C=C(C)[C@H](/C=C/C(C)=O)C1(C)C` (relative stereo) [Compound 3, (4S,6R)-6-methoxy-3,5,5-trimethyl-4-((E)-3-oxobut-1-en-1-yl)cyclohex-2-en-1-one], the IC50 is 10.46 ± 0.03 µM at jack-bean urease and 310.68 ± 0.05 µM in assay [1].
As for `CCOC(=O)/C=C/[C@H]1C(C)=CC(=O)[C@H](OC)C1(C)C` (relative stereo) [Compound 1, ethyl (E)-3-((1S,5R)-5-methoxy-2,6,6-trimethyl-4-oxocyclohex-2-en-1-yl)acrylate], the IC50 at jack-bean urease is 16.87 ± 0.02 µM; in assay [1] it was 331.47 ± 0.04 µM.
Take `COC(=O)/C=C/[C@H]1C(C)=CC(=O)[C@H](OC)C1(C)C` (relative stereo) [Compound 2, methyl (E)-3-((1S,5R)-5-methoxy-2,6,6-trimethyl-4-oxocyclohex-2-en-1-yl)acrylate]: the concentration for half-maximal inhibition (IC50) against jack-bean urease turned out to be 13.71 ± 0.07 µM; in assay [1], 294.18 ± 0.07 µM.

These data come from paper PMC9370616, “Three New Acrylic Acid Derivatives from Achillea mellifolium as Potential Inhibitors of Urease from Jack Bean and α-Glucosidase from Saccharomyces cerevisiae” (Molecules, 2022).
